From patent US9289471B2, “Product and process for liquefaction of mucus or sputum” (National Jewish Health, priority 2002, dated 2016)

Assay: Compaction assay: percent liquid fraction of CF sputum
Design: species or system human
Details: for 3 day range of percent of sputum in the liquid state: donor B; for range of percent liquid values: donor C; for percent liquid fraction: 20 min (FIG. 3A); for liquefying sputum: concentrations below 1 mM
Description: CF sputum stored at −80° C. was thawed at room temperature and aliquoted into 1.5 ml Eppendorf centrifuge tubes at volumes of 275 μl using a positive displacement pipette (Rainin, Emeryville, Calif.). Sputum samples were subjected to either diluent (H2O), Trx+TR+NADPH, GSH+glutathione reductase+NADPH, dithiothreitol (DTT) or N-acetylcysteine treatment by the addition of 25 μl of H2O containing the appropriate molar concentration of each agent. After brief vortexing (˜1 second), sample tubes were loaded onto a microtube rotisserie (Barnstead, Dubuque, Iowa) and incubated at 37° C. for 20 minutes. Samples were then processed for compaction assay according to methodology originated by Daugherty et al. (Daugherty et al., Biomaterials 16:553-558, 1995). To perform the assay, the contents of each sample were loaded into 100 μl glass micro-capillary tubes (Fisher Scientific) that had been previously welded to 200 μl pipette tips in order to achieve a tight fit. Three modified capillary tubes were used to draw up >90% of each sputum sample. Capillary tubes were then removed from their pipette tip, sealed with clay, and centrifuged for 10 minutes in a hematocrit centrifuge (IEC, Needham Heights, Mass.), followed by measurement of the length in millimeters of the gel (solid) and aqueous (liquid) phases in each tube. The percent liquid fraction of each capillary tube was calculated by dividing aqueous phase length by total length (gel+aqueous)×100. The three measurements of the liquid fraction (%) derived from each sample were then averaged to generate a single value for each treatment condition.
Due to abnormal ion transport caused by defects in the CFTR gene, airway secretions in CF patients are often desiccated. As a consequence, purulent CF sputum is comprised largely of a rigid and nonflowing biopolymer matrix, often referred to as gel phase, and lesser amounts of soluble, liquid phase. To assess the effect of Trx on the ratios of these two phases in sputum, compaction assay measurements were performed. […] After 20 minute incubation, the liquid fraction of each sample was determined by compaction assay.
To examine the effect of NADPH, additional samples from different donors were treated with 30 μM Trx, 0.1 μM TR and either 0, 0.2, 0.6, 1.0 or 2 mM NADPH for 20 minutes.
To assess the reproducibility of compaction assay measurements, sputum samples from three different CF donors were separated into aliquots and frozen. Specifically, freshly isolated CF sputum from three different donors (A, B, C) was separated into 275 μl aliquots and frozen. […] Results obtained from three independent experiments performed on each donor sample were used to evaluate assay reproducibility. On three consecutive days, aliquots were thawed, and treated with water, Trx and its reducing system, dithiothreitol (DTT), or no treatment.
The effectiveness of Trx in liquefying sputum was compared with other monothiol and dithiol reducing agents. Sputum samples were aliquoted and treated with Trx or GSH for 20 minutes and percent liquid determined by compaction assay. Initial compaction assay experiments compared the potencies of the Trx and GSH reducing systems in liquefaction of sputum in the presence of equimolar concentrations of NADPH. […] The analysis of Trx and NAC efficacy also was determined after 20 minute incubation, but on a different set of sputum samples.

**Q.** Which “3 day range of percent of sputum in the liquid state” value (1 mM DTT) does the source give for `O[C@H](CS)[C@H](O)CS` (racemic) [DTT, dithiothreitol] here?
**A.** The value was 24-31%.

**Q.** And the “3 day range of percent of sputum in the liquid state” value (5 mM DTT)?
**A.** The value was 42-57%.

**Q.** What about the “range of percent liquid values” (1 mM DTT) of the same compound?
**A.** Its value is 57-61%.

**Q.** And the “range of percent liquid values” (5 mM DTT)?
**A.** The value was 77-79%.

**Q.** What about the “sputum liquefying effectiveness compared with NAC” value (equimolar basis (FIGS. 2 and 3; data not shown)) of the same compound?
**A.** Its value is “more effective on an equimolar basis than NAC”.

**Q.** For `N[C@@H](CCC(=O)N[C@@H](CS)C(=O)NCC(=O)O)C(=O)O` [GSH, glutathione], which percent liquid fraction (30 μM GSH + 0.1 μM Gr + 2 mM NADPH) is on record?
**A.** The percent liquid fraction was 7.8±5.7%.

**Q.** And the percent liquid fraction (100 μM GSH + 0.1 μM Gr + 2 mM NADPH)?
**A.** Its percent liquid fraction is 15.9±9.3%.

**Q.** What about the percent liquid fraction (1 mM GSH + 0.1 μM Gr + 2 mM NADPH) of the same compound?
**A.** The percent liquid fraction was 27.6±3.9%.

**Q.** And the “significance of increase in liquid fraction versus control” value (GSH at comparable or higher concentrations up to 1 mM)?
**A.** The value was “a significant increase in the liquid fraction of sputum was not observed”.

**Q.** And the liquefying sputum?
**A.** Its liquefying sputum is “ineffective”.

**Q.** Which liquefying sputum does the source give for `CC(=O)N[C@@H](CS)C(=O)O` [N-acetylcysteine] here?
**A.** The liquefying sputum was “ineffective”.

**Q.** And the “effectiveness in causing liquefaction of sputum compared with Trx” value (range of concentrations, 20 min, 4 experiments (FIG. 3B))?
**A.** The value was “less effective than Trx”.

**Q.** Which “increase in proportion of sputum present in the liquid fraction” value (NADPH in the absence of Trx (not shown)) does the source give for `NC(=O)C1=CN([C@@H]2O[C@H](COP(=O)(O)OP(=O)(O)OC[C@H]3O[C@@H](n4cnc5c(N)ncnc54)[C@H](OP(=O)(O)O)[C@@H]3O)[C@@H](O)[C@H]2O)C=CC1` [NADPH, β-Nicotinamide adenine dinucleotide phosphate, reduced form] here?
**A.** The value was “did not cause any increase”.
